Columns and labels:
PK study in mice = type: in vivo, C57BL/6 mice; conditions: mouse
Method: The PK study of NR-V04 was done by Bioduro Inc. on three healthy male C57BL/6 mice weighing between 20 and 25 g in each group. Test compound (i.v.) was dissolved in 5% DMSO/3% tween 80 in PBS with 0.5 mEq 1N HCl and was administered (n = 3 per group) at a dose level of 2 mg/kg (concentration: 0.4 mg/ml). Test compounds (i.p.) were dissolved in 5% DMSO/3% tween 80 in PBS with 2 mEq 1N HCl (concentration […]) and were administrated at a dose level of 20 mg/kg. Plasma samples (i.v.) were collected from the orbital plexus at 0.083, 0.25, 0.5, 1.0, 2.0, 4.0, 8.0, and 24 h, and plasma samples (i.p.) were collected from the orbital plexus at 0.25, 0.50, 1.0, 2.0, 4.0, 8.0, and 24 h after dosing. The drug concentrations in the samples were quantified by LC/tandem MS. PK parameters were calculated from the mean plasma concentration by non-compartmental analysis.

NR4A1 = target: T1, NR4A1 (Homo sapiens, UniProt P22736); experiment: NR4A1 degradation in CHL-1 human melanoma cells (immunoblotting); type: cell-based; conditions: CHL-1 cells
T1 construct: NR-V04 effectively promoted the degradation of NR4A1 in two human melanoma cell lines within 16 h; endogenous in cells; host or cells: CHL-1, A375, WM164, M229 human melanoma cells
Method: Human melanoma cell lines: A375 and CHL-1 (gifts from Dr. D. Zhou, the University of Texas Health Science Center, San Antonio, TX, USA) were cultured in Dulbecco’s Modified Eagles’ Medium (DMEM, D5796; Sigma-Aldrich), WM164 and M229 (gifts from Dr. K.S.M. Smalley’s lab) were cultured in RPMI-1640 (R8758; Sigma-Aldrich). Mouse melanoma cell lines: B16F10 (CRL-6475, ATCC) was cultured in DMEM, SW1 and SM1 (gift from Dr. K.S.M. Smalley, Moffitt Cancer Center, Tampa, FL, USA) were cultured in RPMI. Human epithelial kidney cell lines: HEK293T (293T, CRL-3216; ATCC) and Vhl-KO-293T (gift from Dr. D. Zhou, the University of Texas Health Science Center, San Antonio, TX, USA) were cultured in DMEM. Mouse colon cancer cell lines: MC38 (ENH204-FP; Kerafast Inc.) was cultured in DMEM supplemented with 1 mM glutamine, […] non-essential amino acids (11140050; Thermo Fisher Scientific), 1 mM sodium pyruvate (11360070; Thermo Fisher Scientific), and 10 mM HEPES (15630080; Thermo Fisher Scientific). All cell culturing media were supplemented with 10% fetal bovine serum (FBS, F2442; Sigma-Aldrich), 100 U/ml penicillin, and 100 µg/ml streptomycin (P4333; Sigma-Aldrich).
Samples were lysed using radioimmunoprecipitation assay buffer (RIPA) lysis buffer (150 mM NaCl, 5 mM EDTA, 50 mM Tris pH 8.0, 0.5% sodium deoxycholate, 1% NP-40, 0.1% SDS) supplemented with 1 mM dithiothreitol and protease inhibitors. The lysates were separated by SDS-PAGE and analyzed using standard western blotting procedures ([Khan et al., 2019]). Antibodies: human NR4A1 (ab153914, 1:1,000; Abcam), mouse NR4A1 (14-5965-82, 1:1,000; Invitrogen), NR4A2 (AV38753, 1:1,000; Sigma-Aldrich), NR4A3 (TA804893, 1: 1,000; Thermo Fisher Scientific), VHL (68547, 1:1,000; Cell Signaling), β-actin (13E5, 1:5,000; Cell Signaling), β-tubulin (9F3, 1: 5,000; Cell Signaling), and GAPDH (D16H11, 1: 5,000; Cell Signaling) were employed for protein detection.

T1 sequence (P22736 whole entry): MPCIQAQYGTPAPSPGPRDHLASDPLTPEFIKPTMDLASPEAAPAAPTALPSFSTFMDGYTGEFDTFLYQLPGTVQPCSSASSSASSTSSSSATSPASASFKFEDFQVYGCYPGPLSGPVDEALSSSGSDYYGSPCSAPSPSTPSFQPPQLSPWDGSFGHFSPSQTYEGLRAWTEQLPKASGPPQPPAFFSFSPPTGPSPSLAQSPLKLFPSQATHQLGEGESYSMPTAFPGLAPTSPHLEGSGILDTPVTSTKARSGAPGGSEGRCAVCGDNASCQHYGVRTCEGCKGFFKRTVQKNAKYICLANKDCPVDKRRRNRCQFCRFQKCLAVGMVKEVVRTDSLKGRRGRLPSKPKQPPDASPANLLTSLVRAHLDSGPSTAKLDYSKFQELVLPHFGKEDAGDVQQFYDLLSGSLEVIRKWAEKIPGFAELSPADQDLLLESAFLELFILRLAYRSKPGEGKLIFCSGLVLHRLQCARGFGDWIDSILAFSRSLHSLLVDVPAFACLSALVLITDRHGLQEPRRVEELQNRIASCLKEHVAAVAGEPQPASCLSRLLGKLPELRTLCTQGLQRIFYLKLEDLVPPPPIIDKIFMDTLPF

## CC1=C(O)C(=O)C=C2C1=CC=C1[C@@]2(C)CC[C@@]2(C)[C@@H]3C[C@](C)(C(=O)NCCOCCOCCOCCOCC(=O)N[C@H](C(=O)N4C[C@H](O)C[C@H]4C(=O)N[C@@H](C)c4ccc(-c5scnc5C)cc4)C(C)(C)C)CC[C@]3(C)CC[C@]12C [NR-V04]
PK study in mice; male, C57BL/6, plasma, IV 2 mg/kg
  clearance: 0.162 mL/min/kg
PK study in mice
  clearance rate (in words): low clearance rate
NR4A1; 250 nM, 16 h, immunoblotting and densitometry
  NR4A1 protein level, initial screening: highest potency in reducing the protein level of NR4A1
NR4A1; 0.5 μM MG132 10 min, then 500 nM NR-V04 16 h
  NR4A1 protein level with proteasome inhibitor MG132 pretreatment: effectively rescued the NR4A1 protein level
NR4A1; 500 nM, 4 h
  NR4A1 protein level at early time point: initial induction of NR4A1 protein
NR4A1; 10 µM VHL 032 10 min, then 500 nM NR-V04 16 h
  NR4A1 degradation with VHL ligand VHL-032 pretreatment: prevented
NR4A1; 16 h treatment, read-out: 50% degradation concentration (DC50) of NR4A1
  DC50: 229 nM

Reference: PMC10857906, “PROTAC-mediated NR4A1 degradation as a novel strategy for cancer immunotherapy” (The Journal of Experimental Medicine, 2024)
